The values below come from patent US20030229053A1, “Compounds and methods for the treatment or prevention of flavivirus infections” (Shire BioChem Inc., priority 2001, published 2003).

SMILES strings stand for the structures. Some results are limits rather than exact numbers.

What is called IC50 is the concentration at which inhibition is half-maximal.

For the assay, the target named is recombinant HCV NS5B (Hepatitis C virus genotype 1b, UniProt P26663). Briefly: biochemical. The following applies: flashplate, polyrA/biotinylated-oligo dT, 100 nM NS5B, 2 hrs at room temperature; read-out: RNA pol Assay 2 IC50 (μm).
Chain of recombinant HCV NS5B (P26663 2420-3010 limits assumed): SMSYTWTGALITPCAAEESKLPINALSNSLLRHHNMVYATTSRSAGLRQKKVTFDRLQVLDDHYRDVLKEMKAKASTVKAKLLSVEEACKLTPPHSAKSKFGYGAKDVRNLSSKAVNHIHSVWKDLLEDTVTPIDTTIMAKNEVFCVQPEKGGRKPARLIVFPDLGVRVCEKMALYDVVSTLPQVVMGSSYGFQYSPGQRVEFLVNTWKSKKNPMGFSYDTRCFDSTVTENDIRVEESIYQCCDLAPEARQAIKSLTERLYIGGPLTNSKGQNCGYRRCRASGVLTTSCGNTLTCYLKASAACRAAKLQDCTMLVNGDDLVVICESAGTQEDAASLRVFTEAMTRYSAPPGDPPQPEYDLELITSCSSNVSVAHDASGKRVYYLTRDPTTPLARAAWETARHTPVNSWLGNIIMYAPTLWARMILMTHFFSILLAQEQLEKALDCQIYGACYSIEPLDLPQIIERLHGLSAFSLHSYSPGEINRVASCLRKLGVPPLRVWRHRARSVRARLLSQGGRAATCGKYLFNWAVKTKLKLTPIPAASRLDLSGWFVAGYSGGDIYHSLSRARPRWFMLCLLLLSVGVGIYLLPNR
For `O=C(O)[C@H](Cc1ccccc1)N(Cc1sccc1-c1cccc(C(F)(F)F)c1)C(=O)c1ccc(Cl)cc1Cl` [compound #180, 2-{(2,4-Dichloro-benzoyl)-[3-(3-trifluoromethyl-phenyl)-thiophen-2-ylmethyl]-amino}-3-phenyl-propionic acid], the IC50 fell in the range of 5 to 20 µM. Under `O=C(O)[C@H](Cc1ccccc1)N(Cc1sccc1-c1cc(C(F)(F)F)cc(C(F)(F)F)c1)C(=O)c1ccc(Cl)cc1Cl` [compound #181, 2-[[3-(3,5-Bis-trifluoromethyl-phenyl)-thiophen-2-ylmethyl]-(2,4-dichloro-benzoyl)-amino]-3-phenyl-propionic acid] stands 5 to 20 µM. With `O=C(O)[C@H](Cc1ccccc1)N(Cc1sccc1-c1ccncc1)C(=O)c1ccc(Cl)cc1Cl` [compound #182, 2-[(2,4-Dichloro-benzoyl)-(3-pyridin-4-yl-thiophen-2-ylmethyl)-amino]-3-phenyl-propionic acid], the IC50 lay in the range of 5 to 20 µM.

As to `CSc1ccc(-c2ccsc2CN(C(=O)c2ccc(Cl)cc2Cl)[C@@H](Cc2ccccc2)C(=O)O)cc1` [compound #183, 2-{(2,4-Dichloro-benzoyl)-[3-(4-methylsulfanyl-phenyl)-thiophen-2-ylmethyl]-amino}-3-phenyl-propionic acid], the IC50 lay in the range of 5 to 20 µM. The same measure for `O=C(O)[C@H](Cc1ccccc1)N(Cc1sccc1-c1ccc(F)cc1)C(=O)c1ccc(Cl)cc1Cl` [compound #184, 2-{(2,4-Dichloro-benzoyl)-[3-(4-fluoro-phenyl)-thiophen-2-ylmethyl]-amino}-3-phenyl-propionic acid]: under 5 µM; for `O=C(O)[C@H](Cc1ccccc1)N(Cc1sccc1-c1cccnc1)C(=O)c1ccc(Cl)cc1Cl` [compound #185, 2-[(2,4-Dichloro-benzoyl)-(3-pyridin-3-yl-thiophen-2-ylmethyl)-amino]-3-phenyl-propionic acid]: under 5 µM. Take `O=C(O)[C@H](Cc1ccccc1)N(Cc1ccccc1Br)C(=O)c1ccc(Cl)cc1Cl` [compound #187, 2-[(2-Bromo-benzyl)-(2,4-dichloro-benzoyl)-amino]-3-phenyl-propionic acid]: the half-inhibitory concentration (IC50) is 5 to 20 µM. On to `CN(C(=O)c1ccc(Cl)cc1Cl)[C@@H](Cc1ccccc1Br)C(=O)O` [compound #188, 3-(2-Bromo-phenyl)-2-[(2,4-dichloro-benzoyl)-methyl-amino]-propionic acid], for which the IC50 is 5 to 20 µM. The same measure for `CN(C(=O)c1ccc(Cl)cc1Cl)[C@H](Cc1ccc(Br)cc1)C(=O)O` [compound #189, 3-(4-Bromo-phenyl)-2-[(2,4-dichloro-benzoyl)-methyl-amino]-propionic acid]: under 5 µM. The same measure for `O=C(O)C(Cc1ccccc1)N(C(=O)c1ccc(Cl)cc1Cl)c1cccc(Br)c1` (centres unmarked) [compound #190, 2-[(3-Bromo-phenyl)-(2,4-dichloro-benzoyl)-amino]-3-phenyl-propionic acid]: 5 to 20 µM; for `O=C(O)[C@H](Cc1ccccc1)N(C(=O)c1ccc(Cl)cc1Cl)c1ccc(Br)cc1` [compound #191, 2-[(4-Bromo-phenyl)-(2,4-dichloro-benzoyl)-amino]-3-phenyl-propionic acid]: over 20 µM.
